# According to EP2926811A1, “ARTEMETHER-CONTAINING PHARMACEUTICAL COMPOSITION, PREPARATION, AND USE THEREOF” (Kunming Pharmaceutical Corp., priority 2012, dated 2014):
# Where two headings read alike, the source gives them in different places.
# Legend:
# Assay type in all cases: cell-based
# Hep2 cells = test: modified MTT method, proliferation of Hep2 cells; settings: Homo sapiens, HEp-2, 72 h, secondary screening
# Outline: (§1)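 Log-phase MKN-28, HT-29 or Hep2 cells exposed at 37°C, 5% CO2 to 2–500 µM test samples (DMSO solvent controls 0.5% and 1%), then MTT added and formazan dissolved in SDS/isobutanol/HCl; OD read at 570 nm. Inhibition rate vs control (or solvent) wells; IC50 by LOGIT method, 72 h.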
# HL-60 cells = test: modified MTT method, proliferation of HL-60 cells; settings: Homo sapiens, read-out: IC50 on the growth of HL-60 cells
# Outline: (§2)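 Adherent cells were dosed after attachment, suspension cells at seeding, at 2, 10, 50, 250 and 500 µM in RPMI 1640 (triplicate wells; 0.5% and 1% DMSO solvent controls), at 37°C, 5% CO2. MTT was added, followed by SDS/isobutanol/HCl solubilisation and OD 570 nm. Inhibition was taken versus control (versus solvent if DMSO inhibition >15%), and IC50 by LOGIT.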
# A549 cells = test: modified MTT method, proliferation of A549 cells; settings: Homo sapiens, read-out: IC50 on the growth of A549 cells
# Outline: as §2
# K562 cells = test: modified MTT method, proliferation of K562 cells; settings: Homo sapiens, read-out: IC50 on the growth of K562 cells
# Outline: as §2
# PC-3 cells = test: modified MTT method, proliferation of PC-3 cells; settings: Homo sapiens, read-out: IC50 on the growth of PC-3 cells
# Outline: as §2
# HT-29 cells = test: modified MTT method, proliferation of HT-29 cells; settings: Homo sapiens
# Outline: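 HT-29 human colon cancer cells in logarithmic growth were seeded into 96-well plates and, once adherent, exposed to test samples at 2, 10, 50, 250 and 500 µM (three parallel wells, 10 µl/well). Plates were incubated at 37°C, 5% CO2, then given MTT (5 mg/ml, 20 µl/well) and a 10% SDS - 5% isobutanol - 0.012 mol/L HCl solubilizer. OD was read at 570 nm, and IC50 was derived by the LOGIT method.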
# 7 human tumor cell lines = test: modified MTT method, summary over the panel of human tumor cell lines
# Excerpt: HL-60: (human promyelocytic leukemia cell line); K562 (human chronic myelocytic leukemia cell line); HT-29 (human colon cancer cell line); PC-3 (human prostate cancer cell line); A549 (human non-small cell lung cancer cell line); MKN-28 (human gastric cancer cell line); Hep2 (human laryngeal cancer cell line), all of which were purchased from Cell Bank of Shanghai Institutes for Biological Sciences, the Chinese Academy of Sciences.
# Influence of the five test samples on the proliferation of 7 human tumor cell lines was determined via a modified MTT method.
# Cells in logarithmic growth phase were taken, adjusted to a certain concentration and then added into a 96 well culture plate. After culture of adherent cells for a period until adherence, the test samples were added; and for suspension cells, the test samples were added after inoculation. […] After dissolving in uniformity, it was continued to be placed in the incubator at 37°C, 5% CO2 for a period of time, and the OD value of each well was determined under a wavelength of 570 nm with a microplate reader, according to which the results were calculated.
# The inhibition rate was calculated by using Microsoft Excel 2003, and median inhibitory concentration IC50 was calculated with a LOGIT method, which was used as an indicator for judging the inhibitory capability.
# MKN-28 cells = test: modified MTT method, proliferation of MKN-28 cells; settings: Homo sapiens, MKN-28, 72 h, secondary screening
# Outline: as §1
# [1] = Batch 1, read-out: IC50 on the growth of Hep2 cells (72 h)
# [2] = Batch 2, read-out: IC50 on the growth of Hep2 cells (72 h)
# [3] = Batch 3, read-out: IC50 on the growth of Hep2 cells (72 h)
# [4] = average, read-out: IC50 on the growth of Hep2 cells (72 h)
# [5] = HT-29, 24 h, preliminary screening, Batch 1, 24 h, read-out: IC50 on the growth of HT-29 cells
# [6] = HT-29, 24 h, preliminary screening, Batch 2, 24 h, read-out: IC50 on the growth of HT-29 cells
# [7] = HT-29, 48 h, preliminary screening, Batch 1, 48 h, read-out: IC50 on the growth of HT-29 cells
# [8] = HT-29, 48 h, preliminary screening, Batch 2, 48 h, read-out: IC50 on the growth of HT-29 cells
# [9] = HT-29, 72 h, preliminary screening, Batch 1, 72 h, read-out: IC50 on the growth of HT-29 cells
# [10] = HT-29, 72 h, preliminary screening, Batch 2, 72 h, read-out: IC50 on the growth of HT-29 cells
# [11] = HT-29, 72 h, secondary screening, 72 h, Batch 1, read-out: IC50 on the growth of HT-29 cells (72 h)
# [12] = HT-29, 72 h, secondary screening, 72 h, Batch 2, read-out: IC50 on the growth of HT-29 cells (72 h)
# [13] = HT-29, 72 h, secondary screening, 72 h, Batch 3, read-out: IC50 on the growth of HT-29 cells (72 h)
# [14] = HT-29, 72 h, secondary screening, 72 h, average, read-out: IC50 on the growth of HT-29 cells (72 h)
# [15] = Average, read-out: IC50 on the growth of MKN-28 cells (72 h)
# [16] = Batch 1, read-out: IC50 on the growth of MKN-28 cells (72 h)
# [17] = Batch 2, read-out: IC50 on the growth of MKN-28 cells (72 h)
# [18] = Batch 3, read-out: IC50 on the growth of MKN-28 cells (72 h)
structure (smiles),measurement,setting,value
C[C@@H]1CC[C@H]2[C@@H](C)C(=O)O[C@@H]3O[C@@]4(C)CC[C@@H]1[C@]32OO4 [artemisinin],IC50,Hep2 cells; [1],350 µM
same,IC50,Hep2 cells; [2],271 µM
same,IC50,Hep2 cells; [3],> 1000 µM
same,IC50,Hep2 cells; [4],952 µM
same,IC50,"HL-60 cells; HL-60, 24 h, Batch 1, 24 h",> 1000 µM
same,IC50,"HL-60 cells; HL-60, 24 h, Batch 2, 24 h",750 µM
same,IC50,"HL-60 cells; HL-60, 48 h, Batch 1, 48 h",> 1000 µM
same,IC50,"HL-60 cells; HL-60, 48 h, Batch 2, 48 h",331 µM
same,IC50,"HL-60 cells; HL-60, 72 h, Batch 1, 72 h",> 1000 µM
same,IC50,"HL-60 cells; HL-60, 72 h, Batch 2, 72 h",577 µM
same,IC50,"A549 cells; A549, 24 h, Batch 1, 24 h",> 1000 µM
same,IC50,"A549 cells; A549, 24 h, Batch 2, 24 h",421 µM
same,IC50,"A549 cells; A549, 48 h, Batch 1, 48 h",> 1000 µM
same,IC50,"A549 cells; A549, 48 h, Batch 2, 48 h",> 1000 µM
same,IC50,"A549 cells; A549, 72 h, Batch 1, 72 h",> 1000 µM
same,IC50,"A549 cells; A549, 72 h, Batch 2, 72 h",> 1000 µM
same,IC50,"K562 cells; K562, 24 h, Batch 1, 24 h",> 1000 µM
same,IC50,"K562 cells; K562, 24 h, Batch 2, 24 h",> 1000 µM
same,IC50,"K562 cells; K562, 24 h, Batch 3, 24 h",> 1000 µM
same,IC50,"K562 cells; K562, 48 h, Batch 1, 48 h",> 1000 µM
same,IC50,"K562 cells; K562, 48 h, Batch 2, 48 h",> 1000 µM
same,IC50,"K562 cells; K562, 48 h, Batch 3, 48 h",991 µM
same,IC50,"K562 cells; K562, 72 h, Batch 1, 72 h",> 1000 µM
same,IC50,"K562 cells; K562, 72 h, Batch 2, 72 h",518 µM
same,IC50,"K562 cells; K562, 72 h, Batch 3, 72 h",449 µM
same,IC50,"PC-3 cells; PC-3, 24 h, Batch 1, 24 h",> 1000 µM
same,IC50,"PC-3 cells; PC-3, 24 h, Batch 2, 24 h",> 1000 µM
same,IC50,"PC-3 cells; PC-3, 48 h, Batch 1, 48 h",> 1000 µM
same,IC50,"PC-3 cells; PC-3, 48 h, Batch 2, 48 h",> 1000 µM
same,IC50,"PC-3 cells; PC-3, 72 h, Batch 1, 72 h",> 1000 µM
same,IC50,"PC-3 cells; PC-3, 72 h, Batch 2, 72 h",> 1000 µM
same,IC50,HT-29 cells; [5],> 1000 µM
same,IC50,HT-29 cells; [6],> 1000 µM
same,IC50,HT-29 cells; [7],> 1000 µM
same,IC50,HT-29 cells; [8],> 1000 µM
same,IC50,HT-29 cells; [9],> 1000 µM
same,IC50,HT-29 cells; [10],> 1000 µM
same,IC50,HT-29 cells; [11],2350 µM
same,IC50,HT-29 cells; [12],773 µM
same,IC50,HT-29 cells; [13],437 µM
same,IC50,HT-29 cells; [14],545 µM
same,inhibitory effect on the 7 human tumor cell lines in vitro,"7 human tumor cell lines; HL-60, K562, A549, HT-29, PC-3, MKN-28, Hep2",no apparent inhibitory effect
same,IC50,MKN-28 cells; [15],970 µM
same,IC50,MKN-28 cells; [16],588 µM
same,IC50,MKN-28 cells; [17],1440 µM
same,IC50,MKN-28 cells; [18],1610 µM
C[C@H]1[C@H](OC(=O)CCC(=O)O)O[C@@H]2O[C@@]3(C)CC[C@H]4[C@H](C)CC[C@@H]1[C@@]24OO3 [artesunate],IC50,Hep2 cells; [1],119 µM
same,IC50,Hep2 cells; [2],93.2 µM
same,IC50,Hep2 cells; [3],212 µM
same,IC50,Hep2 cells; [4],149 µM
same,IC50,"HL-60 cells; HL-60, 24 h, Batch 1, 24 h",> 1000 µM
same,IC50,"HL-60 cells; HL-60, 24 h, Batch 2, 24 h",269 µM
same,IC50,"HL-60 cells; HL-60, 48 h, Batch 1, 48 h",> 1000 µM
same,IC50,"HL-60 cells; HL-60, 48 h, Batch 2, 48 h",39.5 µM
same,IC50,"HL-60 cells; HL-60, 72 h, Batch 1, 72 h",> 1000 µM
same,IC50,"HL-60 cells; HL-60, 72 h, Batch 2, 72 h",145 µM
same,IC50,"A549 cells; A549, 24 h, Batch 1, 24 h",> 1000 µM
same,IC50,"A549 cells; A549, 24 h, Batch 2, 24 h",> 1000 µM
same,IC50,"A549 cells; A549, 48 h, Batch 1, 48 h",> 1000 µM
same,IC50,"A549 cells; A549, 48 h, Batch 2, 48 h",272 µM
same,IC50,"A549 cells; A549, 72 h, Batch 1, 72 h",> 1000 µM
same,IC50,"A549 cells; A549, 72 h, Batch 2, 72 h",225 µM
same,IC50,"K562 cells; K562, 24 h, Batch 1, 24 h",> 1000 µM
same,IC50,"K562 cells; K562, 24 h, Batch 2, 24 h",> 1000 µM
same,IC50,"K562 cells; K562, 24 h, Batch 3, 24 h",494 µM
same,IC50,"K562 cells; K562, 48 h, Batch 1, 48 h",322 µM
same,IC50,"K562 cells; K562, 48 h, Batch 2, 48 h",> 1000 µM
same,IC50,"K562 cells; K562, 48 h, Batch 3, 48 h",141 µM
same,IC50,"K562 cells; K562, 72 h, Batch 1, 72 h",39.3 µM
same,IC50,"K562 cells; K562, 72 h, Batch 2, 72 h",> 1000 µM
same,IC50,"K562 cells; K562, 72 h, Batch 3, 72 h",90.1 µM
same,IC50,"PC-3 cells; PC-3, 24 h, Batch 1, 24 h",> 1000 µM
same,IC50,"PC-3 cells; PC-3, 24 h, Batch 2, 24 h",> 1000 µM
same,IC50,"PC-3 cells; PC-3, 48 h, Batch 1, 48 h",> 1000 µM
same,IC50,"PC-3 cells; PC-3, 48 h, Batch 2, 48 h",> 1000 µM
same,IC50,"PC-3 cells; PC-3, 72 h, Batch 1, 72 h",> 1000 µM
same,IC50,"PC-3 cells; PC-3, 72 h, Batch 2, 72 h",> 1000 µM
same,IC50,HT-29 cells; [5],> 1000 µM
same,IC50,HT-29 cells; [6],323 µM
same,IC50,HT-29 cells; [7],> 1000 µM
same,IC50,HT-29 cells; [8],> 1000 µM
same,IC50,HT-29 cells; [9],> 1000 µM
same,IC50,HT-29 cells; [10],438 µM
same,IC50,HT-29 cells; [11],328 µM
same,IC50,HT-29 cells; [12],306 µM
same,IC50,HT-29 cells; [13],200 µM
same,IC50,HT-29 cells; [14],225 µM
same,inhibitory effect in vitro,"7 human tumor cell lines; on HL-60, K562, MKN-28",only shows inhibitory effect
same,IC50,MKN-28 cells; [15],27.9 µM
same,IC50,MKN-28 cells; [16],35.3 µM
same,IC50,MKN-28 cells; [17],28.1 µM
same,IC50,MKN-28 cells; [18],21.4 µM
